Measurements as given in patent US9957274B2, “Indane inhibitors of EED and methods of their use” (AbbVie Inc., priority 2016, dated 2018).
Read-outs that look alike come from different tables or passages of the source.

Legend:
[1] = target: EED (Homo sapiens, UniProt O75530); experiment: EED TR-FRET Binding Assay (modified LanthaScreen competition assay)
Summary of the method: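 Competition binding in a modified LanthaScreen format, in 20 mM Tris-HCl pH 7.5, 200 mM NaCl, 0.01% Tween-20, 10 uM DTT and 0.05% BSA. Reactions ran 1 hour at 25° C before TR-FRET detection.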

[2] = tested on: H3K27me3 in G401 cells; experiment: H3K27me3 AlphaLISA assay in G401 cells; assay type: cell-based; settings: Homo sapiens, G-401, 144 h, 6 days with compound
Description: G401 cells (ATCC catalog # CRL-1441) were maintained in McCoy's 5a medium (ATCC) supplemented with 10% heat-inactivated FBS (HyClone) at 37° C. in a humidified CO2 incubator. OCILY19 cells (DSMZ catalog #ACC 528) were maintained in IMDM (Invitrogen) supplemented with 10% human serum (Sigma) at 37° C. in a humidified CO2 incubator. 5,000 cells were plated into each well of 96-well Corning CellBing cell culture plates and incubated overnight at 37° C. in a humidified CO2 incubator. […] The cell culture plates were then incubated for 6 more days. H3K27me3 AlphaLISA assay was performed on the cell culture samples by using AlphaLISAR® H3K27me3 Cellular Detection Kit (PerkinElmer) and 96-well white half-area plates (PerkinElmer).

[3] = tested on: Pfeiffer cells; experiment: CTG cell viability assay (CellTiter-Glo); assay type: cell-based; settings: Homo sapiens, 240 h
Description: 1,000 cells were plated into each well of 96-well Corning CellBing cell culture plates and incubated overnight at 37° C. in a humidified CO2 incubator. […] The cell culture plates were then incubated for 10 more days. CTG cell viability assay was performed on the cell culture samples by using CellTiter-Glo® Luminescent Cell Viability Assay Kit (Promega).

[4] = tested on: H3K27me3 in OCILY19 cells; experiment: H3K27me3 AlphaLISA assay in OCILY19 cells; assay type: cell-based; settings: Homo sapiens, OCI-LY19, 144 h, 6 days with compound, read-out: OCILY-19 IC50
Description: 5,000 cells were plated into each well of 96-well Corning CellBing cell culture plates and incubated overnight at 37° C. in a humidified CO2 incubator. […] The cell culture plates were then incubated for 6 more days. H3K27me3 AlphaLISA assay was performed on the cell culture samples by using AlphaLISAR® H3K27me3 Cellular Detection Kit (PerkinElmer) and 96-well white half-area plates (PerkinElmer).

[5] = Pfeiffer cells, 10 days with compound, CellTiter-Glo, read-out: Cell Proliferation IC50
[6] = Pfeiffer, read-out: Cell Proliferation IC50 (uM)

EED, sequence (O75530 whole entry): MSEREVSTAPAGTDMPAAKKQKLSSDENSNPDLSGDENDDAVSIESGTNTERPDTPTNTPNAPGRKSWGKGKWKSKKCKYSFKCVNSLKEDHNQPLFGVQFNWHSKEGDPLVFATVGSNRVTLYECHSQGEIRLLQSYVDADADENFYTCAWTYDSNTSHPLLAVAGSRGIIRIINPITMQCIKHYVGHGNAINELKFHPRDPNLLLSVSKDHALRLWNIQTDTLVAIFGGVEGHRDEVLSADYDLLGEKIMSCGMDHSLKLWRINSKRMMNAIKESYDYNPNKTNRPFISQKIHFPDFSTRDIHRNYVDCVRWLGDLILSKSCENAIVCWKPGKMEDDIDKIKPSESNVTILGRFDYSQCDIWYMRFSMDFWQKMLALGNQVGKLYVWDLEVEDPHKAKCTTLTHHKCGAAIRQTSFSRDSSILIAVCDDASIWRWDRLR

SMILES	IC50 [1] [µM]	IC50 [4] [µM]	IC50 [2] [µM]	IC50 [3, 5] [µM]	IC50 [3, 6] [µM]
CN(C)[C@H]1CN(C2CCc3cccc(F)c32)C[C@@H]1c1ccc(N2CCN(S(C)(=O)=O)CC2)cc1 (mixture of isomers) [Example 1, (3R,4S)-1-(7-fluoro-2,3-dihydro-1H-inden-1-yl)-4-{4-[4-(methanesulfonyl)piperazin-1-yl]phenyl}-N,N-dimethylpyrrolidin-3-amine]		0.0621	0.0555		0.0725
CC(=O)N1CCN(c2ccc([C@H]3CN(C4CCc5cccc(F)c54)C[C@@H]3N(C)C)cc2)CC1 (stereo partly drawn) [Example 43, 1-(4-{4-[(3S,4R)-4-(dimethylamino)-1-(7-fluoro-2,3-dihydro-1H-inden-1-yl)pyrrolidin-3-yl]phenyl}piperazin-1-yl)ethan-1-one]	0.000297	0.0504	0.0326		
CN(C)[C@H]1CN(C2CCc3cccc(F)c32)C[C@@H]1c1ccc(S(N)(=O)=O)cc1 (mixture of isomers) [Example 8, rac-4-[(3S,4R)-4-(dimethylamino)-1-(7-fluoro-2,3-dihydro-1H-inden-1-yl)pyrrolidin-3-yl]benzene-1-sulfonamide]	0.0107	0.637		1.32	
CN(C)[C@H]1CN(C2CCc3cccc(F)c32)C[C@@H]1c1cn(C)c2c(C(=O)N3CCN(S(C)(=O)=O)CC3)cccc12 (mixture of isomers) [Example 126, rac-{3-[(3S,4R)-4-(dimethylamino)-1-(7-fluoro-2,3-dihydro-1H-inden-1-yl)pyrrolidin-3-yl]-1-methyl-1H-indol-7-yl}[4-(methanesulfonyl)piperazin-1-yl]methanone]	0.00214	0.22		0.329	
CN(C)[C@H]1CN([C@H]2CCc3cccc(F)c32)C[C@@H]1c1ccc(S(C)(=O)=O)cc1 [Example 11, (3R,4S)-1-[(1S)-7-fluoro-2,3-dihydro-1H-inden-1-yl]-4-[4-(methanesulfonyl)phenyl]-N,N-dimethylpyrrolidin-3-amine]	0.0231	0.171		0.301	
CN(C)[C@H]1CN(C2CCc3cccc(F)c32)C[C@@H]1c1ccc(N2CCN(S(C)(=O)=O)CC2)cc1 (mixture of isomers) [Example 2, rac-(3R,4S)-1-(7-fluoro-2,3-dihydro-1H-inden-1-yl)-4-{4-[4-(methanesulfonyl)piperazin-1-yl]phenyl}-N,N-dimethylpyrrolidin-3-amine]		0.14	0.0992		0.126
CN(C)[C@H]1CN([C@H]2C[C@H](F)c3cccc(F)c32)C[C@@H]1c1ccc(S(C)(=O)=O)cc1 (mixture of isomers) [Example 32, rac-(3R,4S)-1-[(1S,3S)-3,7-difluoro-2,3-dihydro-1H-inden-1-yl]-4-[4-(methanesulfonyl)phenyl]-N,N-dimethylpyrrolidin-3-amine]	0.00454	2.11		2.81	
CNC(=O)c1ccc([C@H]2CN(C3CCc4cccc(F)c43)C[C@@H]2N(C)C)cc1 (mixture of isomers) [Example 24, rac-4-[(3S,4R)-4-(dimethylamino)-1-(7-fluoro-2,3-dihydro-1H-inden-1-yl)pyrrolidin-3-yl]-N-methylbenzamide]	0.0205	0.601		2.92	
CN(C)C(=O)c1ccc([C@H]2CN(C3CCc4cccc(Cl)c43)C[C@@H]2N(C)C)cc1 (mixture of isomers) [Example 25, rac-4-[(3S,4R)-1-(7-chloro-2,3-dihydro-1H-inden-1-yl)-4-(dimethylamino)pyrrolidin-3-yl]-N,N-dimethylbenzamide]	0.0182	1.06		2.93	

Now from value to compound, other results behind:

IC50 [1] [µM]	IC50 [4] [µM]	SMILES	IC50 [2] [µM]	IC50 [3, 5] [µM]	IC50 [3, 6] [µM]
0.000679	3.28	CN(C)[C@H]1CN(C2CCc3cccc(F)c32)C[C@@H]1c1cn(C)c2c(C(=O)N3C[C@H](O)[C@@H](O)C3)cccc12 (mixture of isomers) [Example 113, rac-[(3S,4S)-3,4-dihydroxypyrrolidin-1-yl]{3-[(3S,4R)-4-(dimethylamino)-1-(7-fluoro-2,3-dihydro-1H-inden-1-yl)pyrrolidin-3-yl]-1-methyl-1H-indol-7-yl}methanone]	0.799	0.399	
0.00139	0.556	CN1CCN(c2ccc([C@H]3CN(C4CCc5cccc(F)c54)C[C@@H]3N(C)C)cc2)CC1=O (mixture of isomers) [Example 56, rac-4-{4-[(3S,4R)-4-(dimethylamino)-1-(7-fluoro-2,3-dihydro-1H-inden-1-yl)pyrrolidin-3-yl]phenyl}-1-methylpiperazin-2-one]		0.145	
0.00135	0.282	CCS(=O)(=O)N1CCN(c2ccc([C@H]3CN(C4CCc5cccc(F)c54)C[C@@H]3N(C)C)cc2C)CC1 (mixture of isomers) [Example 62, rac-(3R,4S)-4-{4-[4-(ethanesulfonyl)piperazin-1-yl]-3-methylphenyl}-1-(7-fluoro-2,3-dihydro-1H-inden-1-yl)-N,N-dimethylpyrrolidin-3-amine]		0.429	
0.00107	0.203	CN1CCN(C(=O)c2cccc3c([C@H]4CN(C5CCc6cccc(F)c65)C[C@@H]4N(C)C)cn(C)c23)CC1=O (mixture of isomers) [Example 125, rac-4-{3-[(3S,4R)-4-(dimethylamino)-1-(7-fluoro-2,3-dihydro-1H-inden-1-yl)pyrrolidin-3-yl]-1-methyl-1H-indole-7-carbonyl}-1-methylpiperazin-2-one]		0.268	
0.001	0.075	CN(C)[C@@H]1CN(C2CCc3cccc(F)c32)C[C@H]1c1ccc(N2CCN(C(=O)CO)CC2)cc1 (mixture of isomers) [Example 52, rac-1-(4-{4-[(3R,4S)-4-(dimethylamino)-1-(7-fluoro-2,3-dihydro-1H-inden-1-yl)pyrrolidin-3-yl]phenyl}piperazin-1-yl)-2-hydroxyethan-1-one]		0.0894	
0.00103	0.241	CC(=O)N1CCN(C(=O)c2cccc3c([C@H]4CN(C5CCc6cccc(F)c65)C[C@@H]4N(C)C)cn(C)c23)CC1 (mixture of isomers) [Example 128, rac-1-(4-{3-[(3S,4R)-4-(dimethylamino)-1-(7-fluoro-2,3-dihydro-1H-inden-1-yl)pyrrolidin-3-yl]-1-methyl-1H-indole-7-carbonyl}piperazin-1-yl)ethan-1-one]		0.194	
0.00114	0.804	CN1CCN(c2ccc([C@H]3CN(C4CCc5cccc(F)c54)C[C@@H]3N(C)C)cc2)CC1 (mixture of isomers) [Example 61, rac-(3R,4S)-1-(7-fluoro-2,3-dihydro-1H-inden-1-yl)-N,N-dimethyl-4-[4-(4-methylpiperazin-1-yl)phenyl]pyrrolidin-3-amine]		0.204	
0.00175	3.22	CN(C)[C@@H]1CN(C2CCc3cccc(F)c32)C[C@H]1c1ccc(N2CCN(C(=O)CNS(C)(=O)=O)CC2)nc1 (mixture of isomers) [Example 155, rac-N-[2-(4-{5-[(3R,4S)-4-(dimethylamino)-1-(7-fluoro-2,3-dihydro-1H-inden-1-yl)pyrrolidin-3-yl]pyridin-2-yl}piperazin-1-yl)-2-oxoethyl]methanesulfonamide]		0.395	
0.000638	0.583	CN(C)[C@H]1CN(C2CCc3cccc(F)c32)C[C@@H]1C1CCN(c2cnc(C(N)=O)cn2)CC1 (mixture of isomers) [Example 163, rac-5-{4-[(3S,4R)-4-(dimethylamino)-1-(7-fluoro-2,3-dihydro-1H-inden-1-yl)pyrrolidin-3-yl]piperidin-1-yl}pyrazine-2-carboxamide]		0.271	
